We go through one molecule from patent EP1566447A1, “Glimepiride- and insulin-induced glycosylphosphatidylinositol-specific phospholipase C regulation” (priority 2004, dated 2005).

SMILES strings stand for the structures. “Also recorded” adds a separate entry of the source.

Test [1] has as its system GPI-PLC of hcDIGs from rat adipocytes. The experiment in a line: adipocyte GPI-PLC assay (cleavage of AChE, TX-114 partitioning). The format is biochemical. On the procedure:
Biophys. […] Each reaction mixture was subjected to TX-114 partitioning (see below).
After incubation for 1 h on ice, the mixture was layered onto a cushion of 0.4 ml of 0.25 M sucrose and 25 mM Tris/HCl (pH 7.4) on ice.
Cleavage rate was calculated from the amount of hydrophilic AChE and aP activity recovered with the TX-114-depleted phase upon TX-114 partitioning.

The target of test [2] is T1, Hormone-sensitive lipase (HSL) (Homo sapiens, UniProt Q05469).
T1 sequence (Q05469 1-1076): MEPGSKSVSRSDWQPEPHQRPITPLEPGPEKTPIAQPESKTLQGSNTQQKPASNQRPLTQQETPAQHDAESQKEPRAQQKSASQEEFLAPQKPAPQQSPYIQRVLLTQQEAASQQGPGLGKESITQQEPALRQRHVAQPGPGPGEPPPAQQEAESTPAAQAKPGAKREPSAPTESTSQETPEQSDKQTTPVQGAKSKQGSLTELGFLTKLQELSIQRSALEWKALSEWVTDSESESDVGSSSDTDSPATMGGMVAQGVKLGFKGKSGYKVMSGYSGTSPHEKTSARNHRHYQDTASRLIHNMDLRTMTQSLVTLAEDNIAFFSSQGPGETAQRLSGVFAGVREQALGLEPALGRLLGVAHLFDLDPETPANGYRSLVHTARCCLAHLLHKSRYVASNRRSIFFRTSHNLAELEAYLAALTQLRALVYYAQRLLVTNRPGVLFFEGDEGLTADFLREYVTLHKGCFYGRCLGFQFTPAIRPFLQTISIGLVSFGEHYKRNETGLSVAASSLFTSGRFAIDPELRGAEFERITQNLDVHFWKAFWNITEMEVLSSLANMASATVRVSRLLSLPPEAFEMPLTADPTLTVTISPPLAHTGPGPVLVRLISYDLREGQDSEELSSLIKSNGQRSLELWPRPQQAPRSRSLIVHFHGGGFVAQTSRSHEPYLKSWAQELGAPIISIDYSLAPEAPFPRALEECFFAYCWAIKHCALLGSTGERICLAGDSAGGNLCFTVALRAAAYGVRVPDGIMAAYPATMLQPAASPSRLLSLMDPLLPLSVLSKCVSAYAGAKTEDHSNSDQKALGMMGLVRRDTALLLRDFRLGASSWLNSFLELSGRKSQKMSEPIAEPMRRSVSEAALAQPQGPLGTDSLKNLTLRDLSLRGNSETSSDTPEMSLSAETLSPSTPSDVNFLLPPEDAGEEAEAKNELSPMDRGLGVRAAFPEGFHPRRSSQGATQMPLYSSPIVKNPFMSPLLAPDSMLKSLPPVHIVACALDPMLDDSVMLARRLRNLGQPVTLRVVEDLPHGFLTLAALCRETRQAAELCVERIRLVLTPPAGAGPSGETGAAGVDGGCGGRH
The experiment in a line: selectivity: hormone-sensitive lipase assay. The format is biochemical. To be noted: 50 µM. On the procedure: Hormone-sensitive lipase (HSL) and lipoprotein lipase (LPL) were measured using a radiolabeled triolein droplet emulsion as described in "Vertesy et al., (2002) Journal Antibiotics 55:480-494". Pancreatic lipase (PL) was determined by incubation of 0.25 mmol tributyrin in 2 ml of 5 mM Tris/HCl (pH 6.5), 6 mM sodium taurodeoxycholate, 150 mM NaCl, 1 mM CaCl2 with porcine PL and colipase in the same buffer using a recording pH stat (stirring at 1000 rpm at 25°C) with the pH adjusted to 6.5. PC-PLC was assayed by incubation of 0.2 ml of 10 mM dipalmitoyllecithin, 0.1 ml of 10 mM SDC and 0.1 ml of 0.03 M CaCl2 with bacterial PC-PLC (in 50 mM Tris/HCl, pH 7.5, 0.1 % BSA) for 10 min at 37°C. The reaction was terminated by addition of 0.1 ml of 50 % TCA and subsequently of 2.5 ml of […]. After centrifugation (1500xg, 15 min), 0.2-ml portions of the upper methanol/water phase (~ 1.33 ml) was removed, supplemented with 0.5 ml of 60 % HClO4, then heated at 170°C for 1 h and finally analyzed for inorganic phosphate. Mammalian PI-PLC was measured by incubation of 0.1 ml of 10 mM PI, 0.1 ml of 0.8 % sodium deoxycholate, 0.1 % BSA, 0.2 ml of 100 mM sodium borate (pH 7.5) and rat liver PI-PLC for 20 min at 37°C. The reaction was terminated and further processed as described for the PC-PLC. […] Radioactive phosphatidic acid was detected by phosphorimaging. […]

Another test concerns the target T2, bacterial PC-PLC (Bacillus cereus, UniProt P09598).
T2 construct: purchased Sigma/Aldrich (Deisenhofen, Germany)
The experiment in a line: selectivity: PC-PLC assay. It is filed as biochemical. To be noted: 50 µM.

In another test the test system is Isolated rat adipocytes. The experiment in a line: glimepiride-induced redistribution of signaling proteins within DIGs. It is filed as cell-based. The settings on record: max. effective conc. (50 µM).

T2 sequence (P09598 39-283 limits assumed): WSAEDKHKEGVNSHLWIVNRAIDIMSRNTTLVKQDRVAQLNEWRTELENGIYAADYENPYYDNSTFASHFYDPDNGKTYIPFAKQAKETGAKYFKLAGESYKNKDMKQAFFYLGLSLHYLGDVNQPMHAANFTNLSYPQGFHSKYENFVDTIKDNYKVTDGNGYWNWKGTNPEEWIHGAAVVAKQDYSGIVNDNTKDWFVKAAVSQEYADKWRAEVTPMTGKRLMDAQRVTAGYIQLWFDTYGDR

`CCCCCCCCCCCCP1(=O)O[C@@H]2[C@H](O)[C@@H](O)[C@H](O)[C@@H](O)[C@@H]2O1` (mixture of isomers) [GPI-2350, myo-inositol-1,2-cyclo-dodecylphosphonic acid]: the “inhibition % at 1 mM” value in test [1] (1 mM, hcDIGs from rat adipocytes) was 95 ± 11%. In test [1] (hcDIGs from rat adipocytes, inhibitor 0.05 µM - 1 mM), the concentration for half-maximal inhibition (IC50) was in the range of 200 to 500 nM. Besides, the “lipolytic cleavage toward AChE after pretreatment and washing” value in test [1] (hcDIGs treated with 50 µM, reisolated, extensively washed, assayed without inhibitor, data not shown) is recorded as “only low lipolytic cleavage”. For the same molecule, the “effect on lipase activity” value in test [2] is “not significantly affected”. The “effect on phospholipase activity” value on bacterial PC-PLC is “not significantly affected”. For the same molecule, the “effect on glimepiride-induced redistribution from hcDIGs to IcDIGs” value in the test on Isolated rat adipocytes is recorded as “almost complete blockade; also recorded: almost completely abolished”.
